In patent US20260317367A1, “SALTS INCLUDING CRYSTALLINE SALTS OF 25-HYDROXY-CHOLEST-5-EN-3-SULFATE AND METHODS FOR PREPARING SAME” (Durect Corporation, priority 2022, published 2026):
Entries after “also recorded” stand apart in the source; their conditions may differ. Where a name gives a salt, the structure may show the parent alone. Read-outs that look alike come from different tables or passages of the source.

Columns and labels:
Format in all cases: physicochemical
[1] = Thermogravimetric analysis (TGA), weight loss
Summary of the method: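 Mettler-Toledo TGA/DSC3, calibrated with indium, tin and zinc, balance checked with calcium oxalate. Sample in a hermetically sealed aluminium pan with pierced lid, heated under nitrogen from ambient to 350° C at 10° C/min. Weight loss reported against sample temperature.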

[2] = Solid-state chemical stability of 25HC3S salts at 2-8° C., 60° C. and 80° C. (HPLC assay and degradation products); conditions: for % Impurities, Total / % Impurities, 25-HC: ND = Not Detected; for % Impurities, 25-HC: 25-Hydroxy-Cholesterol
Summary of the method: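 Crystalline 25HC3S salts (~25 mg powder per vial) stored at 2-8° C. or 80° C., pulled at 3 and 6 weeks; some 3-week 2-8° C. vials moved to 60° C. for 1 week. Dissolved in 100% methanol (sonication/vortexing, centrifugation or dilution), then HPLC against 25HC3S sodium standards (0.75-1.25 mg/mL) for assay and degradants.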

[3] = Final pH of the solubility sample solutions in aqueous media; conditions: for pH of the solubility sample, 0.9% Sodium Chloride: 0.9% sodium chloride (blank 5.8); for pH of the solubility sample, 5% Dextrose: 5% dextrose (blank 4.7); for pH of the solubility sample, FaSSGF: FaSSGF (blank 1.5, 1.6); for pH of the solubility sample, FaSSIF: FaSSIF (blank 6.5, 6.5); for pH of the solubility sample, FeSSIF: FeSSIF (blank 4.9, 5.0); for pH of the solubility sample, Water: water (blank 6.3)
Summary of the method: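 Undiluted HPLC assay of centrifuged (12000 rpm, 12–15 min) supernatants from aqueous 25HC3S salt suspensions. These suspensions were kept with excess solid and shaken one day at room temperature, 210 motions/min.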

[4] = Angle of repose of 25HC3S salts; conditions: for Flow Property per USP<1174> Powder Flow: classification by angle of repose
Summary of the method: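 About 2 g of salt powder was poured through a 7 mm inner-diameter tube into a 21.14 mm rubber O-ring, forming a cone of fixed diameter. Cone height was measured with calipers and the angle of repose was calculated from it. Flow was classified per USP<1174>.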

[5] = Overall rank order of powder flowability (angle of repose and Hausner ratio); conditions: for Powder flowability, overall (in words): angle of repose and compressibility index/Hausner ratio combined; for Angle of Repose Rank Order / Hausner Ratio Rank Order / Overall Rank Order (Total Score): lower is better flow; for Overall Rank Order (Total Score): sum of both ranks
Source text: Table C5 was generated by adding the relative rank order of the 25HC3S salts for angle of repose and Hausner ratio results, and creating an Over All Rank Order of the salts powder flowability. The salts with the lower overall rank order score had better powder flowability.

[6] = Appearance (color, clumping, flowability) of stored 25HC3S salts
[7] = 2-8° C., 3 wk, listed as 25HC3S zinc
[8] = 80° C., 3 weeks, listed as 25HC3S Zinc
[9] = 2-8° C., 3 wk, listed as 25HC3S benzathine
[10] = 80° C., 3 wk, listed as 25HC3S benzathine
[11] = 80° C., 5 wk, 50400 min, listed as 25HC3S benzathine

SMILES: C[C@H](CCCC(C)(C)O)[C@H]1CC[C@H]2[C@@H]3CC=C4C[C@@H](OS(=O)(=O)O)CC[C@]4(C)[C@H]3CC[C@]12C [Salt #14]
- Weight loss by TGA, 100° C. to […] C. ([1]; 100° C. to […] C., partly decomposition): about 8.8%
- Weight loss by TGA to about 100° C. ([1]; to about 100° C.): about 1.5%
- % Impurities, Total ([2]; 2-8° C., 3 wk): 3.2%
- % Impurities, Total ([2]; 2-8° C., 5 wk): 2.4%
- Overall physical and chemical stability (in words) ([2]; 2-8° C., 60° C., 80° C.): physically and chemically stable
- Overall physical and chemical stability (in words) ([2]; 2-8° C., 60° C., 80° C., listed as lysine): relatively stable
- % Impurities, 25-HC ([2]; 2-8° C., 3 wk): 0.3%
- % Impurities, 25-HC ([2]; 2-8° C., 5 wk): 0.3%
- % Impurities, 25-HC ([2]; 80° C., 3 wk): 0.3%
- % Impurities, 25-HC ([2]; 80° C., 5 wk): 0.3%
- Stressed stability at 80° C. (in words) ([2]; 80° C.): good, stressed stability
- % Impurities, Total ([2]; 80° C., 3 wk): 3.7%
- Physical and chemical solid-state stability (comments) ([2]; 80° C., 5 weeks): Stable after 5 weeks at 80 °C physically and chemically.
- % Impurities, Total ([2]; 80° C., 5 wk): 3.1%
- remaining at 504 h ([2]; solid state, 2-8° C., 3 wk, read-out: Assay): 91.5%
- remaining at 840 h ([2]; solid state, 2-8° C., 5 wk, read-out: Assay): 94.2%
- remaining at 504 h ([2]; solid state, 80° C., 3 wk, vs 2-8° C., read-out: % Recovery): 101%
- remaining at 504 h ([2]; solid state, 80° C., 3 wk, read-out: Assay): 92.8%
- Stability after 5 weeks at 80° C. (in words) ([2]; solid state, 80° C., 5 weeks): stable
- remaining at 840 h ([2]; solid state, 80° C., 5 wk, read-out: % Recovery, 2-8° C./5 wk vs 80° C./5 wk): 103%
- remaining at 840 h ([2]; solid state, 80° C., 5 wk, read-out: Assay): 96.9%
- pH of the solubility sample, 0.9% Sodium Chloride [3]: 8.4
- pH of the solubility sample, 5% Dextrose [3]: 7.5
- pH of solubility sample solution in 5% dextrose ([3]; 5% dextrose (medium pH 4.7)): 7.5
- pH of the solubility sample, FaSSGF [3]: 1.6
- pH of the solubility sample, FaSSIF [3]: 6.5
- pH of the solubility sample, FeSSIF [3]: 5.0
- pH of the solubility sample, Water [3]: 8.8
- Angle of Repose [4]: 25.7 degrees
- Angle of Repose, Rounded Whole Number [4]: 26 degrees
- Powder flowability, overall (in words) ([5]; listed as crystalline 25HC3S lysine): relatively good flowability
- Powder flowability, overall (in words) ([5]; listed as lysine): top three
- Angle of Repose Rank Order [5]: 2
- Hausner Ratio Rank Order [5]: 2
- Overall Rank Order (Total Score) [5]: 4
- Appearance ([6]; 2-8° C., 3 wk): White, free flowing powder with clumping
- Appearance ([6]; 2-8° C., 5 wk): White, free flowing powder with clumping

SMILES: CC(CCCC(C)(C)O)C1CCC2C3CC=C4CC(OS(=O)(=O)O)CCC4(C)C3CCC12C (stereo not drawn) [Salt #3]
- Weight loss by TGA, about […] C. to about 190° C. ([1]; about […] C. to about 190° C., may be decomposition): 11.5%
- Weight loss by TGA, room temperature to about 130° C. ([1]; room temperature to about 130° C.): about 5.1%
- Assay ([2]; 2-8° C., 3 wk, 30240 min, listed as 25HC3S zinc): 92.6 % w/w
- % Impurities, Total [2, 7]: 0.6%
- Overall physical and chemical stability (in words) ([2]; 2-8° C., 60° C., 80° C.): least physically and chemically stable
- Overall physical and chemical stability (in words) ([2]; 2-8° C., 60° C., 80° C., listed as zinc): least stable
- % Impurities, 25-HC [2, 7]: 0.2%
- Physical and chemical solid-state stability (comments) ([2]; 60° C., 1 week, listed as 25HC3S Zinc): Totally decomposed after 1 weck at 60 °C
- Assay ([2]; 60° C., 1 wk (after 3 weeks at 2-8° C.), 10080 min, listed as 25HC3S zinc, 10080 min): 0.0 % w/w
- % Recovery of 2-8° C./3 wk vs 60° C./1 wk ([2]; 60° C., 1 wk, 10080 min, listed as 25HC3S zinc): 0.0%
- % Impurities, Total ([2]; 60° C., 1 wk, listed as 25HC3S zinc): 100.0%
- Physical and chemical solid-state stability (comments) [2, 8]: Totally decomposed after 1 weck at 60 °C and after 3 weeks at 80 °C
- dissolution of decomposed samples in diluent / degradants observed (comments) [2, 8]: decomposed samples at 3-weeks at 80 °C did not dissolve in the diluent,; also recorded: therefore, no degradants were observed
- % Recovery ([2]; 80° C., 3 wk, vs 2-8° C., 30240 min, listed as 25HC3S zinc, 30240 min): 0.0%
- Assay ([2]; 80° C., 3 wk, 30240 min, listed as 25HC3S zinc): 0.0 % w/w
- Stability after 1 week at 60° C. (in words) ([2]; solid state, 60° C., 1 week (after 3 weeks at 2-8° C.)): totally decomposed
- Stability after 3 weeks at 80° C. (in words) ([2]; solid state, 80° C., 3 weeks): totally decomposed
- pH of the solubility sample, 0.9% Sodium Chloride ([3]; listed as 25HC3S zinc): 6.4
- pH of solubility sample solution in 0.9% sodium chloride ([3]; 0.9% sodium chloride (medium pH 5.8)): 6.4
- pH of the solubility sample, 5% Dextrose ([3]; listed as 25HC3S zinc): 7.1
- pH of the solubility sample, FaSSGF [3]: 1.6
- pH of the solubility sample, FaSSIF ([3]; listed as 25HC3S zinc): 6.5
- pH of the solubility sample, FeSSIF [3]: 5.0
- pH of solubility sample solution in water ([3]; water): 7.4
- pH of the solubility sample, Water ([3]; listed as 25HC3S zinc): 7.4
- Flow Property per USP<1174> Powder Flow ([4]; listed as 25HC3S zinc): Passable - may hang up
- Angle of Repose ([4]; listed as 25HC3S zinc): 42.4 degrees
- Angle of Repose, Rounded Whole Number ([4]; listed as 25HC3S zinc): 42 degrees
- Powder flowability, overall (in words) ([5]; listed as zinc): next group
- Angle of Repose Rank Order ([5]; listed as 25HC3S zinc): 10
- Hausner Ratio Rank Order ([5]; listed as 25HC3S zinc): 5
- Overall Rank Order (Total Score) ([5]; listed as 25HC3S zinc): 15
- Appearance [6, 7]: White, free flowing powder with clumping
- Appearance ([6]; 60° C., 1 wk (after 3 weeks at 2-8° C.), listed as 25HC3S zinc): Light brown, melted material stuck to
- Appearance after 3 weeks at 80° C. ([6]; 80° C., 3 weeks): completely burned
- Appearance ([6]; 80° C., 3 wk, listed as 25HC3S zinc): Dark brown, melted material stuck to

SMILES: CC(CCCC(C)(C)O)C1CCC2C3CC=C4CC(OS(=O)(=O)O)CCC4(C)C3CCC12C (stereo not drawn) [Salt #9]
- Weight loss by TGA up to 200° C. ([1]; up to 200° C., listed as crystalline 25HC3S benzathine): 0.4%
- Assay ([2]; 2-8° C., 3 wk, 30240 min, listed as 25HC3S benzathine): 87.6 % w/w
- % Impurities, Total [2, 9]: 64.0%
- Assay ([2]; 2-8° C., 5 wk, 50400 min, listed as 25HC3S benzathine): 77.1 % w/w
- % Impurities, Total ([2]; 2-8° C., 5 wk, listed as 25HC3S benzathine): 64.2%
- degradation by area normalization ([2]; 3 and 5 weeks, 2-8° C. and 80° C.): normalization were all approximately 64%-65% indicating that thermal
- Change of assay value (in words) ([2]; 3 weeks and 5 weeks, 2-8° C. and 80° C.): dropped at a similar rate
- assay drop (comments) ([2]; 3 weeks at 2-8° C. and 80° C. as well as after 5 weeks): The assay dropped at a similar rate after 3 weeks at 2-8 °C and 80 °C
- % Recovery ([2]; 80° C., 3 wk, vs 2-8° C., 30240 min, listed as 25HC3S benzathine, 30240 min): 97.4%
- Assay ([2]; 80° C., 3 wk, 30240 min, listed as 25HC3S benzathine): 85.3 % w/w
- % Impurities, Total [2, 10]: 64.3%
- % Recovery, 2-8° C./5 wk vs 80° C./5 wk [2, 11]: 91.8%
- Assay [2, 11]: 70.8 % w/w
- % Impurities, Total ([2]; 80° C., 5 wk, listed as 25HC3S benzathine): 65.3%
- degraded ([2]; solid state, 3 weeks and 5 weeks, 2-8° C. and 80° C., read-out: Degradation by area normalization): 64 to 65%
- pH of the solubility sample, 0.9% Sodium Chloride ([3]; listed as 25HC3S benzathine): 8.2
- pH of the solubility sample, 5% Dextrose ([3]; listed as 25HC3S benzathine): 7.1
- pH of the solubility sample, FaSSGF [3]: 1.6
- pH of the solubility sample, FaSSIF ([3]; listed as 25HC3S benzathine): 6.5
- pH of the solubility sample, FeSSIF [3]: 5.0
- pH of the solubility sample, Water ([3]; listed as 25HC3S benzathine): 8.6
- Flow Property per USP<1174> Powder Flow ([4]; listed as 25HC3S benzathine): Passable - may hang up
- Angle of Repose ([4]; listed as 25HC3S benzathine): 43.7 degrees
- Angle of Repose, Rounded Whole Number ([4]; listed as 25HC3S benzathine): 44 degrees
- Powder flowability, overall (in words) ([5]; listed as benzathine): next group
- Angle of Repose Rank Order ([5]; listed as 25HC3S benzathine): 12
- Hausner Ratio Rank Order ([5]; listed as 25HC3S benzathine): 7
- Overall Rank Order (Total Score) ([5]; listed as 25HC3S benzathine): 19
- Appearance [6, 9]: White, free flowing powder with some
- Appearance ([6]; 2-8° C., 5 wk): White, free flowing powder with clumping
- Appearance [6, 10]: White, free flowing powder with clumping
- Appearance ([6]; 80° C., 5 wk): White, free flowing powder with clumping
